Laboratory results from patent US10981932B2, “Macrocyclic indole derivatives” (Bayer Aktiengesellschaft, priority 2016, dated 2021).
Counter-ions that a name gives are not always drawn. Like-named read-outs stand apart in the source and are kept apart here.

Key:
[1] = test system: SUDHL5; assay: Induction of caspase-3/7 activity (Caspase-Glo 3/7), SUDHL5; assay type: cell-based; conditions: caspase-3/7 induction, SUDHL5 cells, 3 h treatment, median
In short: (§1)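 Caspase-Glo 3/7 luminescence, 3 h compound exposure, 37 °C, humidified. Minus medium-only blank. EC50 fit: C0=1, plateau = reference max induction.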

[2] = test system: SUDHL10; assay: Anti-proliferative effect (CellTiter-Glo, 72 h), SUDHL10; assay type: cell-based; conditions: SUDHL10 cells, antiproliferation, 72 h incubation, median, read-out: Antiproli SUDHL10 [M] (median)
In short: (§2)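 CTG luminescence read-out after 72 h compound exposure, 37 °C, humidified. Time-zero reference plate read at plating.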

[3] = test system: SUDHL10; assay: Induction of cytotoxicity (CellTiter-Glo, 5 h), SUDHL10
[4] = molecular target: MCL-1 (Homo sapiens, UniProt Q07820); assay: Protein-protein interaction assay MCL-1/Noxa BH3 peptide (MCL-1 assay), TR-FRET; assay type: binding; conditions: MBP-MCL-1 / Noxa BH3-derived peptide, median
Sequence of MCL-1 (Q07820 whole entry): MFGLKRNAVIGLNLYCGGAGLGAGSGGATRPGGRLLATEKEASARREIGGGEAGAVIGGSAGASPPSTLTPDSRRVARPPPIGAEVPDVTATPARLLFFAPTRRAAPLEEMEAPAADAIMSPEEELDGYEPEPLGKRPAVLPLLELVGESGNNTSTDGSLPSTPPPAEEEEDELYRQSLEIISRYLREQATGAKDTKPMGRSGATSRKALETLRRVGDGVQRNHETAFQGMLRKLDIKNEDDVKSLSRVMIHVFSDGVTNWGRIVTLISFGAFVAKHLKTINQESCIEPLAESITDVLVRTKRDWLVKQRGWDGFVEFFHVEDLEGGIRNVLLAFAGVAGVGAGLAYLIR
In short: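 Displacement of the biotinylated Noxa BH3 peptide from MBP-tagged human MCL-1 (1 nM) is detected by time-resolved FRET. Compounds are tested in duplicate across eleven concentrations up to 20 μM, incubated 1 h at 22 °C and overnight at 4 °C, and IC50 is fitted with a four-parameter equation.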

[5] = test system: SUDHL5; assay: Anti-proliferative effect (CellTiter-Glo, 72 h), SUDHL5; assay type: cell-based; conditions: SUDHL5 cells, antiproliferation, 72 h incubation, median, read-out: Antiproli SUDHL5 [M] (median)
In short: as §2

[6] = test system: SUDHL5; assay: Induction of cytotoxicity (CellTiter-Glo, 5 h), SUDHL5
[7] = test system: SUDHL10; assay: Induction of caspase-3/7 activity (Caspase-Glo 3/7), SUDHL10; assay type: cell-based; conditions: caspase-3/7 induction, SUDHL10 cells, 3 h treatment, median
In short: as §1

[8] = test system: A2780; assay: Anti-proliferative effect (CellTiter-Glo, 72 h), A2780; assay type: cell-based; conditions: A2780 cells, median, read-out: IC50 antiproliferation assay A2780 [M] (median)
In short: as §2

[9] = Homo sapiens, SU-DHL10, 5 h, read-out: Cytotox SUDHL10 [M] (median), SUDHL10 cells, cytotoxicity induction, CellTiter-Glo, 5 h incubation, median
[10] = read-out: Cytotox SUDHL5 [M] (median), SUDHL5 cells, cytotoxicity induction, CellTiter-Glo, 5 h incubation, median
[11] = read-out: Cytotox SUDHL10 [M] (median), SUDHL10 cells, cytotoxicity induction, CellTiter-Glo, 5 h incubation, median

| Structure (SMILES) | EC50 [1] | IC50 ([2]; Homo sapiens, SU-DHL10, 72 h) | IC50 [4] | IC50 [5] | EC50 ([7]; Homo sapiens, SU-DHL10, 3 h) | IC50 ([8]; Homo sapiens, A2780, 72 h) | EC50 [7] | IC50 [2] | IC50 [8] | IC50 ([5]; Homo sapiens, SU-DHL-5, 72 h) | EC50 ([1]; Homo sapiens, SU-DHL-5, 3 h) | IC50 [3, 9] | IC50 [6, 10] | IC50 [3, 11] | IC50 ([6]; Homo sapiens, SU-DHL-5, 5 h, read-out: Cytotox SUDHL5 [M] (median), SUDHL5 cells, cytotoxicity induction, CellTiter-Glo, 5 h incubation, median) |
| --- | --- | --- | --- | --- | --- | --- | --- | --- | --- | --- | --- | --- | --- | --- | --- |
| Cn1nc(COc2cncnc2)c2c1COCCCCn1c(C(=O)O)c(CCCOc3cccc4ccccc34)c3cccc-2c31 (single isomer, unassigned) [Example 211, 1-methyl-7-[3-(naphthalen-1-yloxy)propyl]-3-[(pyrimidin-5-yloxy)methyl]-1,10,11,12,13,15-hexahydropyrazolo[4′,3′:9,10][1,6]oxazacycloundecino[8,7,6-hi]indole-8-carboxylic Acid] | > 33 µM | 4.44e-06 M | 0.174 µM | 2.44e-06 M | > 33 µM | > 3.3e-05 M | – | – | – | – | – | > 3.3e-05 M | > 3.3e-05 M | – | – |
| Cn1ccnc1COCc1nn(C)c2c1-c1cccc3c(CCCOc4cccc5ccccc45)c(C(=O)O)n(c13)CCCCOC2 (single isomer, unassigned) [Example 233, (−)-1-methyl-3-{[(1-methyl-1H-imidazol-2-yl)methoxy]methyl}-7-[3-(naphthalen-1-yloxy)propyl]-1,10,11,12,13,15-hexahydropyrazolo[4′,3′:9,10][1,6]oxazacycloundecino[8,7,6-hi]indole-8-carboxylic Acid] | 25.3 µM | – | 0.242 µM | 9.23e-06 M | – | – | > 33 µM | 1.85e-05 M | > 3.3e-05 M | – | – | – | 2.15e-05 M | > 3.3e-05 M | – |
| O=C(O)c1c(CCCOc2cccc3ccccc23)c2cccc3c2n1CCCCOCc1nn2c(c1-3)OCCC2 (single isomer, unassigned) [Example 249, 1-[3-(naphthalen-1-yloxy)propyl]-4,5,6,7,13,14-hexahydro-9H,12H-[1,3]oxazino[3″,2″:1′,5′]pyrazolo[4′,3′:9,10][1,6]oxazacycloundecino[8,7,6-hi]indole-2-carboxylic Acid] | > 33 µM | – | 0.0427 µM | 1.79e-05 M | – | – | > 33 µM | 7.58e-06 M | 1.82e-05 M | – | – | – | > 3.3e-05 M | > 3.3e-05 M | – |
| O=C(O)c1c(CCCOc2cccc3ccccc23)c2cccc3c2n1CCCCOCc1nn2c(c1-3)COCC2 (single isomer, unassigned) [Example 251, 1-[3-(naphthalen-1-yloxy)propyl]-4,5,6,7,12,13-hexahydro-9H,15H-[1,4]oxazino[4″,3″:1′,5]pyrazolo[4′,3′:9,10][1,6]oxazacycloundecino[8,7,6-hi]indole-2-carboxylic acid-N-ethylethanamine Salt] | > 33 µM | 5.15e-06 M | 0.0484 µM | – | > 33 µM | 2.84e-05 M | – | – | – | 6.23e-06 M | – | > 3.3e-05 M | > 3.3e-05 M | – | – |
| Cc1ccc2c(C(C)CCOc3cccc4ccccc34)c(C(=O)O)n3c2c1-c1c(C)nn(C)c1COCCCC3 (single isomer, unassigned) [Example 257, 1,3,4-trimethyl-7-[4-(naphthalen-1-yloxy)butan-2-yl]-1,10,11,12,13,15-hexahydropyrazolo[4′,3′:9,10][1,6]oxazacycloundecino[8,7,6-hi]indole-carboxylic Acid] | > 33 µM | – | 0.669 µM | 2e-05 M | – | 1.9e-05 M | > 33 µM | 8.12e-06 M | – | – | – | – | > 3.3e-05 M | > 3.3e-05 M | – |
| Cc1ccc2c(C(C)CCOc3cccc4ccccc34)c(C(=O)O)n3c2c1-c1c(C)nn(C)c1COCCCC3 (single isomer, unassigned) [Example 258, 1,3,4-trimethyl-7-[4-(naphthalen-1-yloxy)butan-2-yl]-1,10,11,12,13,15-hexahydropyrazolo[4′,3′:9,10][1,6]oxazacycloundecino[8,7,6-hi]indole-8-carboxylic Acid] | > 33 µM | – | 12 µM | 1.92e-05 M | – | – | > 33 µM | 1.16e-05 M | 2.3e-05 M | – | – | – | > 3.3e-05 M | > 3.3e-05 M | – |
| Cc1ccc2c(C(C)CCOc3cccc4ccccc34)c(C(=O)O)n3c2c1-c1c(C)nn(C)c1COCCCC3 (single isomer, unassigned) [Example 259, 1,3,4-trimethyl-7-[4-(naphthalen-1-yloxy)butan-2-yl]-1,10,11,12,13,15-hexahydropyrazolo[4′3′:9,10][1,6]oxazacycloundecino[8,7,6-hi]indole-8-carboxylic Acid] | 31.3 µM | – | 0.577 µM | > 3.3e-05 M | – | – | > 33 µM | 2.96e-05 M | 2.21e-05 M | – | – | – | > 3.3e-05 M | > 3.3e-05 M | – |
| Cc1cc(OCCCc2c(C(=O)O)n3c4c(cccc24)-c2c(C)nn(C)c2COCCC3)cc(C)c1Cl (single isomer, unassigned; enantiomer 1) [Example 014, 1-[3-(4-chloro-3,5-dimethylphenoxy)propyl]-9,11-dimethyl-5,6,8,9-tetrahydro-4H-pyrazolo[4′,3′:8,9][1,5]oxazecino[7,6,5-hi]indole-2-carboxylic acid-N-ethylethanamine Salt (Enantiomer 1)] | – | 7.24e-06 M | 0.00995 µM | – | > 33 µM | – | – | – | > 3.3e-05 M | 2.23e-05 M | 26.6 µM | > 3.3e-05 M | – | – | 2.27e-05 M |

More lines, main results first:

| EC50 [1] | IC50 ([2]; Homo sapiens, SU-DHL10, 72 h) | IC50 [4] | IC50 [5] | EC50 ([7]; Homo sapiens, SU-DHL10, 3 h) | IC50 ([8]; Homo sapiens, A2780, 72 h) | EC50 [7] | IC50 [2] | IC50 [8] | IC50 ([5]; Homo sapiens, SU-DHL-5, 72 h) | EC50 ([1]; Homo sapiens, SU-DHL-5, 3 h) | Structure (SMILES) | IC50 [3, 9] | IC50 [6, 10] | IC50 [3, 11] | IC50 ([6]; Homo sapiens, SU-DHL-5, 5 h, read-out: Cytotox SUDHL5 [M] (median), SUDHL5 cells, cytotoxicity induction, CellTiter-Glo, 5 h incubation, median) |
| --- | --- | --- | --- | --- | --- | --- | --- | --- | --- | --- | --- | --- | --- | --- | --- |
| 9.57 µM | 1.97e-05 M | 0.00974 µM | 2.94e-06 M | – | > 3.3e-05 M | 13.1 µM | – | – | – | – | Cn1ccnc1COCc1nn(C)c2c1-c1cccc3c(CCCOc4cccc5ccccc45)c(C(=O)O)n(c13)CCCCOC2 (single isomer, unassigned) [Example 232, (+)-1-methyl-3-{[(1-methyl-1H-imidazol-2-yl)methoxy]methyl}-7-[3-(naphthalen-1-yloxy)propyl]-1,10,11,12,13,15-hexahydropyrazolo[4′,3′:9,10][1,6]oxazacycloundecino[8,7,6-hi]indole-8-carboxylic Acid] | – | 7.5e-06 M | 1.32e-05 M | – |
| 3.17 µM | 8.78e-06 M | 0.00474 µM | 6.51e-06 M | – | 2.34e-05 M | 12.9 µM | – | > 3.3e-05 M | – | – | O=C(O)c1c(CCCOc2cccc3ccccc23)c2cccc3c2n1CCCCOCc1nn2c(c1-3)OCCC2 (single isomer, unassigned) [Example 248, 1-[3-(naphthalen-1-yloxy)propyl]-4,5,6,7,13,14-hexahydro-9H,12H-[1,3]oxazino[3″,2″:1′,5]pyrazolo[4′,3′:9,10][1,6]oxazacycloundecino[8,7,6-hi]indole-2-carboxylic Acid] | – | 3.38e-06 M | 1.29e-05 M | – |
| 6.62 µM | – | 0.00496 µM | – | 18.6 µM | 2.06e-05 M | – | 3.91e-06 M | – | 1.27e-05 M | – | Cc1cc(OCCCc2c(C(=O)O)n3c4c(cccc24)-c2c(C)nn(C)c2COCCCC3)cc(C)c1Cl (single isomer, unassigned; enantiomer 1) [Example 010, 7-[3-(4-chloro-3,5-dimethylphenoxy)propyl]-1,3-dimethyl-1,10,11,12,13,15-hexahydropyrazolo[4′,3′:9,10][1,6]oxazacycloundecino[8,7,6-hi]indole-8-carboxylic acid-N-ethylethanamine Salt (Enantiomer 1)] | 2.27e-05 M | 7.4e-06 M | – | – |
| – | 6.52e-06 M | 0.00163 µM | – | – | 2.59e-05 M | 17.6 µM | – | – | 7.53e-06 M | 4.19 µM | Cc1nn(C)c2c1-c1cccc3c(CCCOc4ccc(F)c5ccccc45)c(C(=O)O)n(c13)CCCCOC2 (single isomer, unassigned; enantiomer 1) [Example 022, 7-{3-[(4-fluoronaphthalen-1-yl)oxy]propyl}-1,3-dimethyl-1,10,11,12,13,15-hexahydropyrazolo[4′,3′:9,10][1,6]oxazacycloundecino[8,7,6-hi]indole-8-carboxylic Acid-N-ethylethanamine Salt (Enantiomer 1)] | – | 4.08e-06 M | 2.02e-05 M | – |
